Where two headings read alike, the source gives them in different places.
Assays:
[1] = molecular target: T1, recombinant human 11beta-HSD1 (Homo sapiens, UniProt P28845); assay: In vitro inhibition of recombinant human 11beta-HSD1, microsomal Scintillation Proximity Assay (SPA); assay type: biochemical; details: microsomes from HEK 293 EBNA cells, 250 nM [3H]-cortisone, 500 μM NADPH, pH 6.5, room temperature
T1 construct: made in house; microsomal fraction used as enzyme source
Experimental: The in vitro inhibition of recombinant human 11beta-HSD1 was determined as follows.
Cells were grown in DMEM (high glucose) containing MEM non-essential amino acids, L-glutamine, hygromycine B (200 ug/ml), and G418 (200 ug/ml). The cell pellets were homogenized, and the microsomal fraction was obtained by differential centrifugation. 11beta-HSD1 over expressed microsomes were used as the enzyme source for the Scintillation Proximity Assay (SPA). […] The reaction was terminated with the addition of 1 mM 18β-glycerrhentic acid. SPA reagent mixture (YSi anti-rabbit IgG, anti-cortisol antibody in 50 mM Tris, pH 8.0 containing 1% CHAPS and 1% glycerol) was added and the reaction was further incubated at room temperature over night and counted in TopCount.
In the structures set forth in Table 10, the “—O” attached to the carbon adjacent to the nitrogen in the bicyclic core is used to denote an “—OH” group as indicated in Formula I. Similarly, in the structures set forth in Table 10, the “N” adjacent to the carbon atom substituted with ═O in the bicyclic or tricyclic core is used to denote an “NH” moiety as indicated in Formula I-t.

[2] = test system: hepatic glucose production; details: seven day treatment, patients with type 2 diabetes, versus placebo group; cited from earlier work

T1 sequence (P28845 whole entry): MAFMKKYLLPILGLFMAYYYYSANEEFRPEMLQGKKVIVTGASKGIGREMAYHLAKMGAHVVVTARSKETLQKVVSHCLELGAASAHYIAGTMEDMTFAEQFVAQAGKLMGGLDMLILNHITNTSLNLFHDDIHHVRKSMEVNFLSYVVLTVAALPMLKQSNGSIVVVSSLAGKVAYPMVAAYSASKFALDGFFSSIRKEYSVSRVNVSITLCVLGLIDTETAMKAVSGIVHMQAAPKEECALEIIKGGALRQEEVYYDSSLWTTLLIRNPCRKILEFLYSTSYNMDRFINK

Question: For `N#Cc1ccccc1CSc1nc(O)c(C#N)c2ccc(F)cc12` [Example 153], which IC50 [1] is on record?
Answer: 1.45 nM

Question: For `COc1ccc(CSc2nc(O)c(C#N)c3c2CCCC3)cc1` [Example 25], which IC50 [1] is on record?
Answer: 467 nM

Question: With `COc1cccc(CSc2nc(O)c(C#N)c3c2CCCC3)c1` [Example 17] as the compound, how does the IC50 [1] read?
Answer: 461 nM

Question: With `CC1(C)[C@@H](OC(=O)CCC(=O)O)CC[C@]2(C)[C@H]3C(=O)C=C4[C@@H]5C[C@@](C)(C(=O)O)CC[C@]5(C)CC[C@@]4(C)[C@]3(C)CC[C@@H]12` [carbenoxolone] as the compound, how does the hepatic glucose production [2] read?
Answer: decrease in hepatic glucose production

Question: With “4,7-Dichloro-1-(2-chlorobenzylthio)isoquinolin-3-ol [Example 109]” as the compound, how does the IC50 ([1]; read-out: IC50 (concentration of compound required for 50% inhibition of cortisol formation)) read?
Answer: 671 nM

Question: With `N#Cc1c(O)nc(SCc2ccccc2C(=O)O)c2c1CCCC2` [Example 34] as the compound, how does the IC50 [1] read?
Answer: > 10000 nM

Reference: patent publication US20140128365A1, “PYRIDONE/HYDROXYPYRIDINE 11-BETA HYDROXYSTEROID DEHYDROGENASE TYPE I INHIBITORS” (BRISTOL-MYERS SQUIBB COMPANY, priority 2012, published 2014)
